According to paper PMC8245078, “Development of novel benzofuran-isatin conjugates as potential antiproliferative agents with apoptosis inducing mechanism in Colon cancer” (Journal of Enzyme Inhibition and Medicinal Chemistry, 2021):

Experiments:
Assay type in all cases: cell-based, human
[1] = test system: HT-29 colorectal cancer cell line; assay: MTT cell viability assay; details: for inhibition of HT-29 cancer cells viability: 10 µM, 24 h, MTT
Description: In the present investigation a new set of benzofuran–isatin hybrids (5a–e and 7a–i) was synthesised to be evaluated for their potential anticancer activity towards two human colorectal cancer cell lines, SW-620 and HT-29. […] Both, SW-620 and HT-29 cells were treated with 10 µM of each compound for 24 h and the percent cell viability was calculated using MTT assay.
For this reason, compounds 5a and 5d were pursued for further studies. Starting with determination of IC50s and cytotoxic selectivity studies. Serial concentrations of compounds 5a and 5d were used to examine their impact on cell viability using MTT protocol. Results of concentration vs percent viability were charted, and the IC50 was calculated for SW-620 and HT-29 cell lines using Graph Pad prism 8 (Figure 4). […]
[(Ti-Tz)/Tz] x 100 for concentrations for which Ti<Tz […]
SW620 and HT29 colorectal cancer cell lines and HFF-1 fibroblast (ATCC, Rockville, USA) were used. HT29 cells were cultured and maintained in Dulbecco’s Modified Eagles Medium (DMEM) (GIBCO, by Thermo Fischer Scientific, NY, USA) supplemented with 10% fetal bovine serum (FBS), 100 units/mL penicillin, and 100 μg streptomycin. SW620 and HFF-1 cells were cultured in Roswell Park Memorial Institute medium (RPMI-1640) (GIBCO, by Thermo scientific, NY, USA) supplemented with 10% FBS and 1% penicillin and streptomycin (Napolitano et al., 2015). All cultures were incubated at 37 °C and humidified atmosphere of 5% […]
2.3. Cell Viability Assay
The cytotoxicity effect of compounds on the colorectal cancer cell lines, SW620 and HT29 in addition to the normal human fibroblasts was measured by MTT (3-(4, 5-dimethylthiazol-2-yl)-2,5-diphenyltetrazolium bromide) (Sigma-Aldrich, St. Louis, MO, USA) as previously described. Briefly, cells were seeded in 96 well culture plates at 5000/well for HT29 and 10,000/well for SW620 for 24 h. Cells were then incubated with different compounds from WAG1 series (1-15) 24h at 37 °C and humidified 5% CO2 incubator. Freshly prepared 10 μl of 3-(4,5-dimethylthiazol-2-yl)-2,5-diphenyltetrazolium bromide (MTT 5 mM) solution were added to the cells and further incubated for 2 h. Thereafter, 100 μl of dimethyl sulfoxide (DMSO) were added in each well and the crystals were dissolved through careful pipetting. […]
VA, USA). The experiments were performed in triplicate for each condition. […]
The total protein concentration was evaluated by the colorimetric
Bradford protein assay (BIO-RAD inc, CA, USA) at 595 nm absorbance. Lysates were loaded in […]

SW-620 cells = assay: Annexin V-FITC/propidium iodide apoptosis assay; details: for total increase in apoptosis vs control untreated cells: 24 h; for induction of apoptosis (in words): SW-620, 5 and 10 µM; for total increase in apoptosis vs control untreated cells, range: SW-620, over the concentrations 5 and 10 µM
Description: Further investigation for compounds 5a and 5d concerning their potential role of apoptosis induction, using Annexin V-FITC/PI double staining assay, was performed to evaluate their impact on both early and late apoptosis percentages in SW-620 cancer cell lines (Figure 6). […] As shown, compound 5a induced approximately 1.7-folds and 3.8-folds total increase in apoptosis at concentration of 5 µM and 10 µM, respectively, in comparison to the control untreated SW-620 cell line (Figure 6(A)).
Figure 6. (A) AnnexinV/PI apoptosis assay for compound 5a. Tow concentrations (5 and 10 µM) of compound 5a, in addition untreated plate as a control were used to test the apoptotic effect by using Annexin V/PI in SW-620 cell line. Cells were treated with the compound 5a for 24 h. (B) AnnexinV/PI apoptosis assay for compound 5d. Tow concentrations (5 and 10 µM) of compound 5d, in addition untreated plate as a control were used to test the apoptotic effect by using Annexin V/PI in SW-620 cell line. Cells were treated with the compound 5d for 24 h. […] Their printed values are 1.93%, 2.06%, 1.81% in panel A and 0.73%, 2.01%, 1.62% in panel B. […]
2.4. Measurement of Apoptosis by Annexin V-FITC/PI Assay
Induction of apoptosis was measured by Dead Cell Apoptosis Kit with Annexin V FITC and PI, for flow cytometry (Thermofischer scientific, OR, USA) according to the manufacturer’s instruction. SW620 cells were seeded in a 6-well plate (3 × 10^5 cells per well) and treated with the various compound for 24h. Both floating and adherent cells were harvested, pooled together, and incubated with Annexin V-FITC and PI for 15 min on ice in dark. The cells were analyzed by BD FACSCalibur™ cell analyzer (BD Biosciences, CA, USA) at an emission of 530 nm (FL1 channel) and >575 nm (FL3). […]

[2] = test system: anti-apoptotic Bcl2 protein in SW-620 cells; assay: Western blot analysis of Bcl2; details: SW-620, 5 μM and 10 μM, 24 h
Excerpt: To further examine the possible mechanism of apoptosis, the effect of compounds 5a and 5d on certain apoptosis-related proteins was studied. Bcl2 protein as a critical component of the mitochondrial apoptotic pathway is reported to be overexpressed in numerous tumours causing survival of cancer cell[62]. In addition, it was reported that caspase activation during apoptosis leads to proteolytic cleavage of several cellular substrates participating in DNA reparation including [poly (ADP-ribose) polymerase][63]. Therefore, the impact of compounds 5a and 5d on the anti-apoptotic protein Bcl2 and the level of cleaved PARP was examined (Figure 7). […]
2.5. Western Blot Analysis
All cells were seeded in a 100 mm dish (1 × 10^6 cells per dish) in 5% CO2 at 37 °C in the appropriate culture medium. The cells with around 50% confluency were treated with compounds for 24h. At the experiment day, cells were washed with 1x PBS, harvested and lysed in RIPA lysis buffer, combined with protease inhibitors, (Sigma-Aldrich, St. Louis, MO, USA) as described previously (39)). The total protein concentration was evaluated by the colorimetric Bradford protein assay (BIO-RAD inc, CA, USA) at 595 nm absorbance. Lysates were loaded in […]
equal concentration and separated by sodium dodecyl sulfate-polyacrylamide gel electrophoresis (SDS-PAGE) and then transferred to a nitrocellulose membrane by semi-dry. […]

[3] = Homo sapiens, HT-29, HT-29, MTT

Row | SMILES | inhibition of HT-29 cancer cells viability [1] [%] | IC50 ([1]; HT-29, MTT) [µM] | IC50 [1, 3] [µM] | total increase in apoptosis vs control untreated cells (SW-620 cells; SW-620, 5 µM) | total increase in apoptosis vs control untreated cells (SW-620 cells; SW-620, 10 µM) [folds] | induction of apoptosis (in words) (SW-620 cells) | total increase in apoptosis vs control untreated cells, range (SW-620 cells) | Bcl2 protein expression (Western blot, in words) [2]
1 | Cc1c(C(=O)N/N=C2\C(=O)Nc3ccccc32)oc2ccccc12 [Compound 5a] | > 50 | 8.7 | 9.4 | approximately 1.7 folds | ~3.8 | dose dependent induction of apoptosis | 1.7–3.8 folds | dose dependent inhibition
2 | COc1ccc2c(c1)/C(=N/NC(=O)c1oc3ccccc3c1C)C(=O)N2 [Compound 5d] | > 50 | 6.5 | 9.8 | ~2.9 folds | ~3.8 | dose dependent induction of apoptosis | 2.9–3.8 folds | significant inhibition
3 | CCCN1C(=O)/C(=N\NC(=O)c2oc3ccccc3c2C)c2ccccc21 [Compound 7b] | > 50 |  |  |  |  |  |  | 
